According to patent US9340590B2 (priority 2011, dated 2016):
Read-outs that look alike come from different tables or passages of the source. Positions of bridges follow the written chain, without caps; N, C: chain ends. Non-standard residues stand in square brackets, D forms with d. Residues, ends and D or L forms follow the SMILES beside them. No end group written: not given here. Lys(Me2) = CN(C)CCCC[C@H](N)C(=O)O; Abu = CC[C@H](N)C(=O)O

Experiments:
hNav1.7 = hNav1.7 (Homo sapiens, UniProt Q15858); assay: cell-based; format: cell-based
Chain of hNav1.7 (Q15858 whole entry, looked up): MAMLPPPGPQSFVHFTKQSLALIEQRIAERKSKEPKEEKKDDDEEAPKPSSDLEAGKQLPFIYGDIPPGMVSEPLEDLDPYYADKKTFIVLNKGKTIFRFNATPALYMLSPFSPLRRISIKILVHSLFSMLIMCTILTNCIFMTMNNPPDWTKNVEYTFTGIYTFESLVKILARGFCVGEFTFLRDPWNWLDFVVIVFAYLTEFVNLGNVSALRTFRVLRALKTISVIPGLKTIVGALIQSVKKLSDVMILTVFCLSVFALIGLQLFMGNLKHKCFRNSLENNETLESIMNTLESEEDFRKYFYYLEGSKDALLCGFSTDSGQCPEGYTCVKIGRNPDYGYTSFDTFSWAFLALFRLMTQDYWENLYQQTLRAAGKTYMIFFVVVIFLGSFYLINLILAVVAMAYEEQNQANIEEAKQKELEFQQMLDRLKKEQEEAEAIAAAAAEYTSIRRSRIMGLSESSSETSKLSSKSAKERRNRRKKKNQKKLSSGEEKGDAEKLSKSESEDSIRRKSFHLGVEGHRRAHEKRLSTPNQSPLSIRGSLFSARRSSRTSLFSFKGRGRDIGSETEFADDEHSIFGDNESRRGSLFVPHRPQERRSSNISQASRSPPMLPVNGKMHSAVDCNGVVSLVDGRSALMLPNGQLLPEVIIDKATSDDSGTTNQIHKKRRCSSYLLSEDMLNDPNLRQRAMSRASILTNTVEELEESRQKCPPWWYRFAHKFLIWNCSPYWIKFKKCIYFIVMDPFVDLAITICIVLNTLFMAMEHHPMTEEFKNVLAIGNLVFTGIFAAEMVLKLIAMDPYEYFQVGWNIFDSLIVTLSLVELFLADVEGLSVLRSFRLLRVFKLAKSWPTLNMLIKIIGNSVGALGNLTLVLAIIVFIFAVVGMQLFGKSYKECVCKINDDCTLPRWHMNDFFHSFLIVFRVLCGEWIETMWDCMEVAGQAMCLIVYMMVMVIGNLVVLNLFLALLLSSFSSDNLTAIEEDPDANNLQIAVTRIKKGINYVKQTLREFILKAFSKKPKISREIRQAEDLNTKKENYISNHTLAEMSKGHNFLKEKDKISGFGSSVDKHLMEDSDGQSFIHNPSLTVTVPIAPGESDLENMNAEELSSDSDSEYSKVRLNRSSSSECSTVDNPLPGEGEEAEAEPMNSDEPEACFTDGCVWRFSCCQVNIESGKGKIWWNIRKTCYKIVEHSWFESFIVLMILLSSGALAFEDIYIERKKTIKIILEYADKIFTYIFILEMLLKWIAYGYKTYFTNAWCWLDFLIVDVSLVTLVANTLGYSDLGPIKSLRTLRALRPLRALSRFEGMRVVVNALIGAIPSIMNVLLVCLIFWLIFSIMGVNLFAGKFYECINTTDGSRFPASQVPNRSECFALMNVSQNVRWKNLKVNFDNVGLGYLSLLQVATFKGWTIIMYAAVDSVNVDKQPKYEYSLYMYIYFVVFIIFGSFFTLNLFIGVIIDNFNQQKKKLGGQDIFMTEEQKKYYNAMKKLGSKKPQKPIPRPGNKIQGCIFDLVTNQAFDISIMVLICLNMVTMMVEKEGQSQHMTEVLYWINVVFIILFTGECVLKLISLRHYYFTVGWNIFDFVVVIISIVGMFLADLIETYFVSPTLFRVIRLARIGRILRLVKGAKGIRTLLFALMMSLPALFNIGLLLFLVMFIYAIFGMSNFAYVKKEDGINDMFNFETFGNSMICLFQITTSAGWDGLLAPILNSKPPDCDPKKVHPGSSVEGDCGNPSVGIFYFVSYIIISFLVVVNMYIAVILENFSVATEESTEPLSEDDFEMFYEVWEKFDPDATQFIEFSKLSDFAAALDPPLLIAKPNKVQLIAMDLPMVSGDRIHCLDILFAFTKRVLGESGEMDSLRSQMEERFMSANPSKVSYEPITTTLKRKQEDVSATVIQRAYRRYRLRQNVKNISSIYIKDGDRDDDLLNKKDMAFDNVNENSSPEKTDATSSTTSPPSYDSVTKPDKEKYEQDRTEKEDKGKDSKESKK

hNav1.3 = hNav1.3 (Homo sapiens, UniProt Q9NY46); assay: cell-based; conditions: for IC50: IonWorks Quattro, read-out: IWQ Use Nav1.3
Chain of hNav1.3 (Q9NY46 whole entry, looked up): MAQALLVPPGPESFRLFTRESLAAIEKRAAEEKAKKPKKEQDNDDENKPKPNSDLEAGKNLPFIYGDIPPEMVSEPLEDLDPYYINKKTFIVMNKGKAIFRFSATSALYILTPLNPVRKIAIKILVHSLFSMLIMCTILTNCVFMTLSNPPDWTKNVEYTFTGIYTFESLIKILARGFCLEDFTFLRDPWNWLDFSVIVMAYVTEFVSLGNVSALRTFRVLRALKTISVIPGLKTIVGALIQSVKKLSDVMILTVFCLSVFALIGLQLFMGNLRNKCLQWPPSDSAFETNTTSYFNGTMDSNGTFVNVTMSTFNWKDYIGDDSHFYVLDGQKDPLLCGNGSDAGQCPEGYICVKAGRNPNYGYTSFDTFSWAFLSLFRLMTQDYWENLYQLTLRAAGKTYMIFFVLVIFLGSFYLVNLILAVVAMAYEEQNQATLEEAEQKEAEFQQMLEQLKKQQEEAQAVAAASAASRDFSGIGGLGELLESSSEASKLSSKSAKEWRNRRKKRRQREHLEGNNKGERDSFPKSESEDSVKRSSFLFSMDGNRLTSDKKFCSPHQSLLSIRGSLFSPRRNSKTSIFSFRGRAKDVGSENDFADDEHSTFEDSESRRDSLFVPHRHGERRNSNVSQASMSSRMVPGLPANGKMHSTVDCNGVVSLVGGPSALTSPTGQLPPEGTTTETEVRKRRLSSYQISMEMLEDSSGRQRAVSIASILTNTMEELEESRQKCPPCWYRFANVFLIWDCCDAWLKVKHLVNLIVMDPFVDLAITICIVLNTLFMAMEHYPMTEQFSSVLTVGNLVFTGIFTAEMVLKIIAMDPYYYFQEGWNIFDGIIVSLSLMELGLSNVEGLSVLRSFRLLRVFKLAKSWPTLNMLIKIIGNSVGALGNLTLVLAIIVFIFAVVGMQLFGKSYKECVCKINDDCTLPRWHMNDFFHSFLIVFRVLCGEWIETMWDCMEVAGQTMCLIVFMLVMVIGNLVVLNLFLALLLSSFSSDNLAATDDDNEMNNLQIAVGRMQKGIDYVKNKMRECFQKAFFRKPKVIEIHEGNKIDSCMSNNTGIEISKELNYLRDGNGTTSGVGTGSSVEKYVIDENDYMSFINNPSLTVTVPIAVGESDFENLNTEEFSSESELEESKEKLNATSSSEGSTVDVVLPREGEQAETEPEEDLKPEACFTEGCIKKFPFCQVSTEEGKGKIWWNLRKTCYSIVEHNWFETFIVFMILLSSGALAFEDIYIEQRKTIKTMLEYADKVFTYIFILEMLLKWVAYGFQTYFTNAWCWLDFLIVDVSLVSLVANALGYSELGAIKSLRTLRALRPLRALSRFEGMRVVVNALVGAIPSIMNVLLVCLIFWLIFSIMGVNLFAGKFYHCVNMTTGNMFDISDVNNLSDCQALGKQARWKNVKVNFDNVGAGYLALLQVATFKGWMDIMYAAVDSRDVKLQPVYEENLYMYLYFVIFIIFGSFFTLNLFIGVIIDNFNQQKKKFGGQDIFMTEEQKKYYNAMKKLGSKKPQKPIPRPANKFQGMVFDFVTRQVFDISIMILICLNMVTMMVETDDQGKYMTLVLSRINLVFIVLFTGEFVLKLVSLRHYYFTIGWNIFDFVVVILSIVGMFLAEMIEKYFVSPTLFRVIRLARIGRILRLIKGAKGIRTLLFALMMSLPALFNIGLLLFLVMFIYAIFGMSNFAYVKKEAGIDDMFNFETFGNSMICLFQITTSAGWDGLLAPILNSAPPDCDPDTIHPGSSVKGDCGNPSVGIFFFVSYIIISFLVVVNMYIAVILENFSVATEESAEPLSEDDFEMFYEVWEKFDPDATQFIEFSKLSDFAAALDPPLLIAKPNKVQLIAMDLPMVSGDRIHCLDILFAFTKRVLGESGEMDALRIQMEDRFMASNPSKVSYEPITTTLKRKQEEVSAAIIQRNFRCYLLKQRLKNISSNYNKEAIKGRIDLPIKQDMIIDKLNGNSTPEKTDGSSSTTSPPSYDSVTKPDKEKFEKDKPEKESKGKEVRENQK

[1] = IonWorks Quattro, Use, read-out: IWQ Use Nav1.7
[2] = IonWorks Quattro, use-dependent, […], read-out: IWQ Use Nav1.7 (μm)

## CC[C@H](C)[C@@H]1NC(=O)[C@@H]2CSSC[C@@H]3NC(=O)[C@H](C(C)C)NC(=O)[C@H](CC(C)C)NC(=O)[C@H](CC(N)=O)NC(=O)[C@@H]4CCCN4C(=O)[C@H](CCCNC(=N)N)NC(=O)[C@H](CSSC[C@H](NC(=O)[C@@H](N)CC(=O)O)C(=O)N[C@@H](CC(C)C)C(=O)NCC(=O)N[C@@H](Cc4ccccc4)C(=O)N[C@@H](CCSC)C(=O)N[C@@H](CCCNC(=N)N)C(=O)N[C@@H](CCCCN)C(=O)N2)NC(=O)[C@H](CSSC[C@@H](C(=O)N[C@@H](CCCCN)C(=O)N[C@@H](Cc2ccc(O)cc2)C(=O)N[C@H](C(=O)N[C@@H](Cc2ccccc2)C(N)=O)C(C)C)NC(=O)[C@H](Cc2c[nH]c4ccccc24)NC(=O)[C@H](CCC(N)=O)NC(=O)[C@H](Cc2cnc[nH]2)NC(=O)[C@H]([C@@H](C)O)NC(=O)[C@H](CCCNC(=N)N)NC(=O)[C@H](CO)NC3=O)NC(=O)[C@H](CCCCN)NC(=O)[C@H](CC(=O)O)NC(=O)[C@H](CC(N)=O)NC(=O)[C@H](CC(=O)O)NC(=O)[C@@H]2CCCN2C1=O [SEQ ID NO: 763, [Gln28]GpTx-1] (H-DCLGFMRKCIPDNDKCCRPNLVCSRTHQWCKYVF-NH2; disulfide 2-17, 9-23, 16-30)
hNav1.7
  IC50: 190 nM
hNav1.3; use-dependent block, hNav1.3
  IC50: 270 nM

## CC[C@H](C)[C@@H]1NC(=O)[C@@H]2CSSC[C@@H]3NC(=O)[C@H](C(C)C)NC(=O)[C@H](CC(C)C)NC(=O)[C@H](CC(N)=O)NC(=O)[C@@H]4CCCN4C(=O)[C@H](CCCNC(=N)N)NC(=O)[C@H](CSSC[C@H](NC(=O)[C@@H](N)CC(=O)O)C(=O)N[C@@H](CC(C)C)C(=O)NCC(=O)N[C@@H](Cc4ccccc4)C(=O)N[C@@H](CCSC)C(=O)N[C@@H](CCCNC(=N)N)C(=O)N[C@@H](CCCCN)C(=O)N2)NC(=O)[C@H](CSSC[C@@H](C(=O)N[C@@H](CCCCN)C(=O)N[C@@H](CCC(=O)O)C(=O)N[C@H](C(=O)N[C@@H](Cc2ccccc2)C(N)=O)C(C)C)NC(=O)[C@H](Cc2c[nH]c4ccccc24)NC(=O)[C@H](CCCCN)NC(=O)[C@H](Cc2cnc[nH]2)NC(=O)[C@H]([C@@H](C)O)NC(=O)[C@H](CCCNC(=N)N)NC(=O)[C@H](CO)NC3=O)NC(=O)[C@H](CCCCN)NC(=O)[C@H](CC(=O)O)NC(=O)[C@H](CC(N)=O)NC(=O)[C@H](CC(=O)O)NC(=O)[C@@H]2CCCN2C1=O [compound 32] (H-DCLGFMRKCIPDNDKCCRPNLVCSRTHKWCKEVF-NH2; disulfide 2-17, 9-23, 16-30)
hNav1.7; Table 25, IonWorks Quattro, use, […], read-out: IWQ Use Nav1.7
  IC50: 13900 nM
hNav1.3; Table 25, use, […]
  IC50: 9140 nM

## CC[C@H](C)[C@@H]1NC(=O)[C@@H]2CSSC[C@@H]3NC(=O)[C@H](C(C)C)NC(=O)[C@H](CC(C)C)NC(=O)[C@H](CC(N)=O)NC(=O)[C@@H]4CCCN4C(=O)[C@H](CCCNC(=N)N)NC(=O)[C@H](CSSC[C@H](NC(=O)[C@@H](N)CC(=O)O)C(=O)N[C@@H](CC(C)C)C(=O)NCC(=O)N[C@@H](Cc4ccccc4)C(=O)N[C@@H](CCSC)C(=O)N[C@@H](CCCNC(=N)N)C(=O)N[C@@H](CCCCN)C(=O)N2)NC(=O)[C@H](CSSC[C@@H](C(=O)N[C@@H](CCCCN)C(=O)N[C@@H](Cc2ccc(O)cc2)C(=O)N[C@H](C(=O)N[C@@H](Cc2ccccc2)C(N)=O)C(C)C)NC(=O)[C@H](CCCCN)NC(=O)[C@H](CCCCN)NC(=O)[C@H](Cc2c[nH]cn2)NC(=O)[C@H]([C@@H](C)O)NC(=O)[C@H](CCCNC(=N)N)NC(=O)[C@H](CO)NC3=O)NC(=O)[C@H](CCCCN)NC(=O)[C@H](CC(=O)O)NC(=O)[C@H](CC(N)=O)NC(=O)[C@H](CC(=O)O)NC(=O)[C@@H]2CCCN2C1=O [compound 56] (H-DCLGFMRKCIPDNDKCCRPNLVCSRTHKKCKYVF-NH2; disulfide 2-17, 9-23, 16-30)
hNav1.7
  Nav1.4/Nav1.7: 1.4
  Nav1.7/Nav1.3: 0.8
hNav1.3
  Nav1.4/Nav1.3: 1.1

## CSCC[C@@H]1NC(=O)[C@H](Cc2ccccc2)NC(=O)CNC(=O)[C@H](CC(C)C)NC(=O)[C@@H](NC(=O)[C@@H](N)CC(=O)O)CSSC[C@@H]2NC(=O)[C@@H]3CSSC[C@@H](C(=O)N[C@@H](CCCCN)C(=O)N[C@@H](Cc4ccc(O)cc4)C(=O)N[C@H](C(=O)N[C@@H](Cc4ccccc4)C(N)=O)C(C)C)NC(=O)[C@H](Cc4c[nH]c5ccccc45)NC(=O)[C@H](CCCCN)NC(=O)[C@H](Cc4c[nH]cn4)NC(=O)[C@H]([C@@H](C)O)NC(=O)[C@H](CCCNC(=N)N)NC(=O)[C@H](CO)NC(=O)[C@H](CSSC[C@H](NC(=O)[C@H](CCCCN)NC(=O)[C@H](CCCNC(=N)N)NC1=O)C(=O)N[C@@H](CO)C(=O)N1CCC[C@H]1C(=O)N[C@@H](CC(=O)O)C(=O)N[C@@H](CC(N)=O)C(=O)N[C@@H](CC(=O)O)C(=O)N[C@@H](CCCCN)C(=O)N3)NC(=O)[C@H](C(C)C)NC(=O)[C@H](CC(C)C)NC(=O)[C@H](CC(N)=O)NC(=O)[C@@H]1CCCN1C(=O)[C@H](CCCNC(=N)N)NC2=O [compound 305] (H-DCLGFMRKCSPDNDKCCRPNLVCSRTHKWCKYVF-NH2; disulfide 2-17, 9-23, 16-30)
hNav1.7; [1]
  IC50: 50 nM

## CSCC[C@@H]1NC(=O)[C@H](Cc2ccccc2)NC(=O)CNC(=O)[C@H](CC(C)C)NC(=O)[C@@H](NC(=O)[C@@H](N)CC(=O)O)CSSC[C@@H]2NC(=O)[C@@H]3CSSC[C@@H](C(=O)N[C@@H](CCCCN)C(=O)N[C@@H](Cc4ccc(O)cc4)C(=O)N[C@H](C(=O)N[C@@H](Cc4ccccc4)C(N)=O)C(C)C)NC(=O)[C@H](Cc4c[nH]c5ccccc45)NC(=O)[C@H](CCCCN)NC(=O)[C@H](Cc4c[nH]cn4)NC(=O)[C@H]([C@@H](C)O)NC(=O)[C@H](CCCNC(=N)N)NC(=O)[C@H](CO)NC(=O)[C@H](CSSC[C@H](NC(=O)[C@H](CCCCN)NC(=O)[C@H](CCCNC(=N)N)NC1=O)C(=O)N[C@@H]([C@@H](C)O)C(=O)N1CCC[C@H]1C(=O)N[C@@H](CC(=O)O)C(=O)N[C@@H](CC(N)=O)C(=O)N[C@@H](CC(=O)O)C(=O)N[C@@H](CCCCN)C(=O)N3)NC(=O)[C@H](C(C)C)NC(=O)[C@H](CC(C)C)NC(=O)[C@H](CC(N)=O)NC(=O)[C@@H]1CCCN1C(=O)[C@H](CCCNC(=N)N)NC2=O [compound 309] (H-DCLGFMRKCTPDNDKCCRPNLVCSRTHKWCKYVF-NH2; disulfide 2-17, 9-23, 16-30)
hNav1.7; [1]
  IC50: 100 nM

## CC[C@H](C)[C@@H]1NC(=O)[C@@H]2CSSC[C@@H]3NC(=O)[C@H](C(C)C)NC(=O)[C@H](CC(C)C)NC(=O)[C@H](CC(N)=O)NC(=O)[C@@H]4CCCN4C(=O)[C@H](CCCCN(C)C)NC(=O)[C@H](CSSC[C@H](NC(=O)[C@@H](N)CC(=O)O)C(=O)N[C@@H](CC(C)C)C(=O)NCC(=O)N[C@@H](Cc4ccccc4)C(=O)N[C@@H](CCSC)C(=O)N[C@@H](CCCNC(=N)N)C(=O)N[C@@H](CCCCN)C(=O)N2)NC(=O)[C@H](CSSC[C@@H](C(=O)N[C@@H](CCCCN)C(=O)N[C@@H](Cc2ccc(O)cc2)C(=O)N[C@H](C(=O)N[C@@H](Cc2ccccc2)C(N)=O)C(C)C)NC(=O)[C@H](Cc2c[nH]c4ccccc24)NC(=O)[C@H](CCCCN)NC(=O)[C@H](Cc2c[nH]cn2)NC(=O)[C@H]([C@@H](C)O)NC(=O)[C@H](CCCNC(=N)N)NC(=O)[C@H](CO)NC3=O)NC(=O)[C@H](CCCCN)NC(=O)[C@H](CC(=O)O)NC(=O)[C@H](CC(N)=O)NC(=O)[C@H](CC(=O)O)NC(=O)[C@@H]2CCCN2C1=O [compound 314] (H-DCLGFMRKCIPDNDKCC[Lys(Me2)]PNLVCSRTHKWCKYVF-NH2; disulfide 2-17, 9-23, 16-30)
hNav1.7; [1]
  IC50: 210 nM

## CC[C@H](C)[C@@H]1NC(=O)[C@@H]2CSSC[C@@H]3NC(=O)[C@H](C(C)C)NC(=O)[C@H](CC(C)C)NC(=O)[C@H](CC(N)=O)NC(=O)[C@@H]4CCCN4C(=O)[C@H](CCCNC(=N)N)NC(=O)[C@H](CSSC[C@H](NC(=O)[C@@H](N)CC(=O)O)C(=O)N[C@@H](CC(C)C)C(=O)NCC(=O)N[C@@H](Cc4ccccc4)C(=O)N[C@@H](CCSC)C(=O)N[C@@H](CCCNC(=N)N)C(=O)N[C@@H](CCCCN)C(=O)N2)NC(=O)[C@H](CSSC[C@@H](C(=O)N[C@@H](CCCCN)C(=O)N[C@@H](Cc2ccc(O)cc2)C(=O)N[C@H](C(N)=O)C(C)C)NC(=O)[C@H](Cc2c[nH]c4ccccc24)NC(=O)[C@H](CCCCN)NC(=O)[C@H](Cc2c[nH]cn2)NC(=O)[C@H]([C@@H](C)O)NC(=O)[C@H](CCCNC(=N)N)NC(=O)[C@H](CO)NC3=O)NC(=O)[C@H](CCCCN)NC(=O)[C@H](CC(=O)O)NC(=O)[C@H](CC(N)=O)NC(=O)[C@H](CC(=O)O)NC(=O)[C@@H]2CCCN2C1=O [compound 415] (H-DCLGFMRKCIPDNDKCCRPNLVCSRTHKWCKYV-NH2; disulfide 2-17, 9-23, 16-30)
hNav1.7; [2]
  IC50: 2350 nM

## CC[C@H](C)[C@@H]1NC(=O)[C@@H]2CSSC[C@@H]3NC(=O)[C@H](C(C)C)NC(=O)[C@H](CC(C)C)NC(=O)[C@H](CC(N)=O)NC(=O)[C@@H]4CCCN4C(=O)[C@H](CCCNC(=N)N)NC(=O)[C@H](CSSC[C@H](NC(=O)[C@@H](N)CC(=O)O)C(=O)N[C@@H](CC(C)C)C(=O)NCC(=O)N[C@@H](Cc4ccccc4)C(=O)N[C@@H](CCSC)C(=O)N[C@@H](CCCNC(=N)N)C(=O)N[C@@H](CCCCN)C(=O)N2)NC(=O)[C@H](CSSC[C@@H](C(=O)N[C@@H](CCCCN)C(=O)N[C@@H](Cc2ccc(O)cc2)C(N)=O)NC(=O)[C@H](Cc2c[nH]c4ccccc24)NC(=O)[C@H](CCCCN)NC(=O)[C@H](Cc2c[nH]cn2)NC(=O)[C@H]([C@@H](C)O)NC(=O)[C@H](CCCNC(=N)N)NC(=O)[C@H](CO)NC3=O)NC(=O)[C@H](CCCCN)NC(=O)[C@H](CC(=O)O)NC(=O)[C@H](CC(N)=O)NC(=O)[C@H](CC(=O)O)NC(=O)[C@@H]2CCCN2C1=O [compound 416] (H-DCLGFMRKCIPDNDKCCRPNLVCSRTHKWCKY-NH2; disulfide 2-17, 9-23, 16-30)
hNav1.7; [2]
  IC50: 1500 nM

## [2-Abu-2,17]GpTx-1 (D[Abu]LGFMRKCIPDNDKC[Abu]RPNLVCSRTHKWCKYVF-NH2; ends and bridges not checked)
hNav1.7
  activity against NaV1.7 relative to GpTx-1, in words: retains significant activity

## [Glu18;desAsn20]GpTx-1 (DCLGFMRKCIPDNDKCCEGLVCSRTHKWCKYVF-NH2; ends and bridges not checked)
hNav1.7
  activity against NaV1.7 relative to GpTx-1, in words: without substantial impact on the activity

## [Ser-Ser19]GpTx-1 (DCLGFMRKCIPDNDKCCRSSNLVCSRTHKWCKYVF-NH2; ends and bridges not checked)
hNav1.7
  activity against NaV1.7 relative to GpTx-1, in words: without substantial impact on the activity
